Measurements: paper PMC4822341 (Cell Discovery, 2015)

Tests used:
[1] = target: T1, GR (Homo sapiens, UniProt P04150); assay: In vitro H3-Dex competition GR ligand-binding assay; conditions: H3-DEX 15 nM, GR cytosol
T1 construct: expressed in transfected cells; host or cells: AD293
T1 sequence (P04150 1-777): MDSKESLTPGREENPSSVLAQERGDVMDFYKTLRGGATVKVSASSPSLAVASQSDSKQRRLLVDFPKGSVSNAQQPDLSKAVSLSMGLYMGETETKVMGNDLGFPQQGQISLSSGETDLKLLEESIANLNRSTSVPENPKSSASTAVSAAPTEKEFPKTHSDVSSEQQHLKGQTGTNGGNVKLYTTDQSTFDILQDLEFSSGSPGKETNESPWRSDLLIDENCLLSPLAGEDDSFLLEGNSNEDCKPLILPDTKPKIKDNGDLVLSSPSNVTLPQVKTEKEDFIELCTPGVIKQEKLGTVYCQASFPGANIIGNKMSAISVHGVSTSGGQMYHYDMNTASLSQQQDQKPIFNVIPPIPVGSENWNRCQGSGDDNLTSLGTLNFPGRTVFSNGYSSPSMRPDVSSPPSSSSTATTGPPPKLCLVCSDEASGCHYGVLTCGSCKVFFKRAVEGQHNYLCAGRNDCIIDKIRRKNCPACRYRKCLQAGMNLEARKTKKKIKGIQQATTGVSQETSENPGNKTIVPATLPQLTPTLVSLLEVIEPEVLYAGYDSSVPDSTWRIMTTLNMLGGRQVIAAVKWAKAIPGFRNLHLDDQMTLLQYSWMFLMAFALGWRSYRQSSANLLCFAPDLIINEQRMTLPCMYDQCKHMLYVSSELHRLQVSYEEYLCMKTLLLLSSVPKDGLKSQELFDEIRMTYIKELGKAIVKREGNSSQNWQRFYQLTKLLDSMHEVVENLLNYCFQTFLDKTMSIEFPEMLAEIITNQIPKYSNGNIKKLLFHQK
From the text: The in vitro GR binding assay is similar to the one described previously. […] Data were plotted as a standard competition curve by GraphPad Prism 5.

[2] = target: T1, GR; assay: NF-κB-Luc repression reporter assay in AD293 cells; type: cell-based; conditions: TNFα 2 ng ml^-1
Description: Similar to previous reports, for induction 100 ng pHHLuc (MMTV-Luc) plasmid, 0.1 ng pRShGR together with 5 ng phRGtkRenilla were transfected by X-tremeGENE 9 (Roche) into AD293 cells per well in 24-well plate. For transrepression, 10 ng AP-1-Luc or 10ng pNF-κB-luc, 100 ng pRShGR and 5 ng phRGtkRenilla were transfected into AD293 cells per well. We used the same transfection protocol for the MR and PR assays, except of the use of 0.1 ng MR or PR plasmid to substitute GR. One day after transfection, for induction, cells were directly treated by steroids for 16 h; for repression, cells were treated with either PMA at 0.6 ng ml^–1 (for AP-1 reporter) or TNFα at 2 ng ml^–1 (for NF-κB reporter), together with various steroids. Cells were collected by addition of 1× Passive Lysis Buffer (Promega, Madison, WI, USA), and luciferase activity was assayed by the Dual-Glo Luciferase system (Promega). Data were plotted as firefly luciferase activity normalized to Renilla luciferase activity in Relative Luciferase Units.
Error bars indicate SD, n=3.

[3] = system: IL-6 release from A549 cells; assay: Cytokine inhibition assay, IL-6 release from A549 cells; type: cell-based; conditions: Homo sapiens, TNFα 2 ng ml^-1, read-out: IC50 (suppression of IL-6 release)
Description: A549 cells into 24-well plates were split at 40 000 cells/well. After 1 day growth, cells were treated with various steroids 1 h before overnight induction of inflammation by 2 ng ml^–1 TNFα according to literature. Sixteen hours after treatment, cell culture supernatants were subjected to anti-IL-6 Elisa (R&D Quantikine Elisa Human IL-6 Kit) according to the manual.

[4] = system: RAW264.7 cells; assay: Gene expression (microarray and quantitative PCR) in LPS-stimulated RAW264.7 cells; type: cell-based, mouse; conditions: RAW264.7, LPS, steroid 100 nM
Description: Mouse macrophage RAW264.7 cells were grown in 6-well plates to reach 80% confluence. The cells were pretreated with different steroids at 100 nM 1 h before overnight induction of inflammation by 1 μg ml^–1 LPS. Total RNA was isolated using a Qiagen mini RNA extraction kit (Valencia, CA, USA). Complementary DNA was synthesized from total RNA with an Invitrogen Superscript cDNA synthesis kit (Carlsbad, CA, USA). Target genes were quantified with a Power SYBR Green Real-Time PCR kit (Carlsbad, CA, USA) (ABI) in a StepOnePlus real-time PCR instrument (Applied Biosystems, Carlsbad, CA, USA). In every case, GAPDH (glyceraldehyde-3-phosphate dehydrogenase) was used as an internal control and data were analyzed by the ΔΔCt method. The specificity of target primers was tested both in a dissociation (melting) curve (Supplementary Figure S4) and against a water control. Primer sequence information is included in Supplementary Figure S4.
RAW264.7 cells were treated with designated steroids at 100 nM 1 h before overnight LPS stimulation of inflammation. Each treatment was duplicated. The following day, RNA samples were isolated using a Qiagen mini RNA extraction kit and applied to the Agilent Whole Mouse Genome 8x60K gene expression platform. Data were analyzed by the limma package in R program. Heat maps were generated by the HeatMap 2 package. Pathway analysis was done via DAVID Bioinformatics Resources 6.7 (NIAID) and Venn diagrams were generated by BioVenn.

CON(C)C(=O)C1(OC(=O)c2ccco2)C(C)CC2C3CC(F)C4=Cc5c(cnn5-c5ccccc5)CC4(C)C3(F)C(O)CC21C (centres unmarked) [VSGC12]
IC50 [1]: 6.1 nM
IC50 [2]: 0.08 nM
IC50 [3]: 0.05 nM
inhibition activity of pro-inflammatory cytokines (microarray, normalized to DEX) [4]: much stronger inhibition activity than DEX
repression activity on pro-inflammatory cytokines by quantitative PCR [4]: much higher repression activity on IL-1β, IL-6 and IL-33 than FF and DEX
